Key:
[1] = target: CYP1A2 (Homo sapiens (Human), UniProt P05177); assay: CYP inhibition in human liver microsomes, CYP1A2; type: in vitro ADME; conditions: 0.05-50 μM
Description: (§1) Mixed probe substrate of CYP isozymes were used to evaluate the inhibition of compounds of the present disclosure to human liver microsomal cytochrome P450 isoenzymes (CYP1A2, CYP2C9, CYP2C19, CYP2D6, and CYP3A4).
(§2) The testing compound was dissolved in DMSO to prepare a 10 mM stock solution. 178 μL of the mixture solution of human liver microsomes and substrate was added into non-inhibitor control (NIC) wells and test compound sample wells of the reaction plate, and the reaction plate was placed on ice. 2 μL of blank solvent and test compound working solution was taken from the dilution plate, respectively, and then added into the reaction plate (final concentration: 0.05-50 μM). The reaction plate was preheated in a 37±0.2° C. water bath for 10 minutes. 20 μL of cofactor solution was added into the reaction plate using a liquid handling workstation to initiate the reaction.
(§3) After 10 minutes, 400 μL of stop solution was added to the reaction plate to stop the reaction, and the reaction plate was placed on ice for 5 minutes. […] The peak areas of the substrate and product were detected by liquid chromatography tandem mass spectrometry (LC/MS/MS). […]
(§4) A nonlinear regression analysis of mean percentage activity of the test compound against concentration was performed using SigmaPlot (V.11). The IC50 value was calculated using a three- or four-parameter inverse logarithmic equation. […]

[2] = Microsome metabolic stability, Beagle; type: in vitro ADME; conditions: dog; Beagle liver microsomes, 1 μM compound, 0.5 mg/mL; read-out: MMS CLint(liver)-D
Description: (§5) To evaluate the Phase I metabolic stability of the test compound in animal and human liver microsomes.
(§6) 10 μL of the test compound working solution and 80 μL of microsome working solution (0.625 mg/mL liver microsome protein) were added to the reaction plate and NCF60 plate, respectively, while only microsome working solution was added to the Blank60 plate, then, the above incubation plates were placed in a 37° C. water bath for pre-incubation for approximately 10 minutes.
(§7) After the pre-incubation, 10 μL of a NADPH regeneration system working solution was added into each sample well of all the plates except the NCF60 plate and TO plate to start the reaction, and 10 μL of potassium phosphate buffer was added to each well of the NCF60 plate. The final reaction concentrations of the test sample or control sample were 1 μM, the concentration of the liver microsomes was 0.5 mg/mL.
(§8) After incubation for an appropriate time, 300 μL of a stop solution (acetonitrile solution containing 200 ng/mL tolbutamide) was added to each sample well to stop the reaction; stop solution and then NADPH regeneration system working solution were added to the TO plate in sequence.
(§9) All the sample plates were shaken and centrifuged at 3220 rpm for 20 min, and then 100 μL of supernatant was taken from each well and diluted with 300 μL of pure water for LC-MS/MS analysis. […]

[3] = target: CYP2D6 (Homo sapiens (Human), UniProt P10635); assay: CYP inhibition in human liver microsomes, CYP2D6; type: in vitro ADME; conditions: 0.05-50 μM
Sequence of CYP2D6 (P10635 whole entry): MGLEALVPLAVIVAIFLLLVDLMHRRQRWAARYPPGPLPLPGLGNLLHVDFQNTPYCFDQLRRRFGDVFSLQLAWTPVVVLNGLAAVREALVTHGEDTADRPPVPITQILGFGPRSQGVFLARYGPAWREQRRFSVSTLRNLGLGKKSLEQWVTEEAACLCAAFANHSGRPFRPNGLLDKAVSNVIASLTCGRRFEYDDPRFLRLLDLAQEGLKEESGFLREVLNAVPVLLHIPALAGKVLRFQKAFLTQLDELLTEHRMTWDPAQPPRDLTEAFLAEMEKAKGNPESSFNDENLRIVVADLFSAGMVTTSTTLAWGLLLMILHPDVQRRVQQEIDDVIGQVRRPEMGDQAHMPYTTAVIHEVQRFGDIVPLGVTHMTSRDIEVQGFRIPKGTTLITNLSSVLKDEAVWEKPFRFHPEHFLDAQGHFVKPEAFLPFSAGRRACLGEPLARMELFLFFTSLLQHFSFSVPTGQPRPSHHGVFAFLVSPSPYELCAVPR
Description: as §1, §2, §3, §4

[4] = target: CYP3A4 (Homo sapiens (Human), UniProt P08684); assay: CYP inhibition in human liver microsomes, CYP3A4; type: in vitro ADME; conditions: 0.05-50 μM
Sequence of CYP3A4 (P08684 whole entry): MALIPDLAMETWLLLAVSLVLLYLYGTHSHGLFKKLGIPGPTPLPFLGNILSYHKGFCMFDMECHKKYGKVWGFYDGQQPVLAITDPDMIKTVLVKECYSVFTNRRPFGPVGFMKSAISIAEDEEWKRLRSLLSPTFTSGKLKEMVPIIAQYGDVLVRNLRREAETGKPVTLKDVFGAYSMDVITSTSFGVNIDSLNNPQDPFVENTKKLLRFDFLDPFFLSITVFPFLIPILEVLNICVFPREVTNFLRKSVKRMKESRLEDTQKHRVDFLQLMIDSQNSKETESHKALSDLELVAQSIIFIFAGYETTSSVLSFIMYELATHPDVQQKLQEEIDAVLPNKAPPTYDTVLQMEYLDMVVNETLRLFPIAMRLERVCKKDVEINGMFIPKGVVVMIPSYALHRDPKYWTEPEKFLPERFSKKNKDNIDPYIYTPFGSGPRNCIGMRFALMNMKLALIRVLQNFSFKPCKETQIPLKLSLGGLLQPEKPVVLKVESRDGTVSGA
Description: as §1, §2, §3, §4

[5] = target: CYP2C9 (Homo sapiens (Human), UniProt P11712); assay: CYP inhibition in human liver microsomes, CYP2C9; type: in vitro ADME; conditions: 0.05-50 μM
Sequence of CYP2C9 (P11712 whole entry): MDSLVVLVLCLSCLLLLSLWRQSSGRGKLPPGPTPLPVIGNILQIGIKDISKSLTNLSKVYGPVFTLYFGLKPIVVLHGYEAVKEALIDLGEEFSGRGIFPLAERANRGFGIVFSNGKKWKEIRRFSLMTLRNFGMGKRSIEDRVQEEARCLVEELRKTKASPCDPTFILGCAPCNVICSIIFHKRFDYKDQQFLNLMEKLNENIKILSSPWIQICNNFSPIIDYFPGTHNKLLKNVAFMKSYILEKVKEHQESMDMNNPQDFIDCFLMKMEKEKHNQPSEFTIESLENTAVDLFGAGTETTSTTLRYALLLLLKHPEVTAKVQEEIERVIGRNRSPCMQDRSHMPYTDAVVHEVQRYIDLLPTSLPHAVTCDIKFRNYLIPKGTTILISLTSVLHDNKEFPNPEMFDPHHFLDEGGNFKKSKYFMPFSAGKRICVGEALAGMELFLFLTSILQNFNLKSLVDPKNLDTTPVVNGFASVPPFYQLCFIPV
Description: as §1, §2, §3, §4

[6] = Microsome metabolic stability, mice; type: in vitro ADME; conditions: mouse; mice liver microsomes, 1 μM compound, 0.5 mg/mL; read-out: MMS CLint(liver)-M
Description: as §5, §6, §7, §8, §9

[7] = Microsome metabolic stability, rat; type: in vitro ADME; conditions: rat liver microsomes, 1 μM compound, 0.5 mg/mL; read-out: MMS CLint(liver)-R
Description: as §5, §6, §7, §8, §9

[8] = Pharmacokinetics study of mice; type: in vivo; conditions: mouse, male CD-1 mice, plasma
Excerpt: The purpose of this experiment was to study the pharmacokinetics of the test compound in the plasma of male CD-1 mice after intravenous injection and oral administration.
The animals were randomly divided into two groups with 2 males in each group. The compounds were formulated into prescribed preparations. Intravenous formulations were formulated with 5% DMS 0/95% (6% hydroxypropyl-β-cyclodextrin) to give a clear solution, and oral preparations were formulated with 0.1% Tween80/0.5% HPMC aqueous solution to give a homogeneous suspension.
Whole blood samples were collected from the saphenous vein of the animals 5 minutes, 15 minutes, 30 minutes, 1 hour, 2 hours, 4 hours, 8 hours, 12 hours, and 24 hours after administration. The whole blood sample was added to the centrifuge tube containing anticoagulant, and centrifuged at 3200 g for 10 minutes at 4° C. The supernatant of plasma was taken, frozen quickly on dry ice, and then stored in a −70±10° C. refrigerator until LC-MS/MS analysis.
WinNonlin™ Version 6.3.0 (Pharsight, Mountain View, Calif.) pharmacokinetic software was used to process the plasma drug concentration data of the compounds with a non-compartmental model. The peak concentration (Cmax), peak time (Tmax) and quantifiable end time were obtained directly from the blood drug concentration-time profile.
The following pharmacokinetic parameters were calculated using the log-linear trapezoid method: Plasma clearance rate (CL), volume of distribution (Vd), elimination phase half-life (T1/2), average residence time of drug in the body from 0 to the end time point (MRT0-last), average residence time of the drug in the body from 0 to infinite time (MRT0-inf), area under the time-plasma concentration curve from 0 to the end time point (AUC0_last), area under the time-plasma concentration curve from 0 to infinite time (AUC0-inf) and bioavailability (F).

[9] = Microsome metabolic stability, human; type: in vitro ADME; conditions: human liver microsomes, 1 μM compound, 0.5 mg/mL; read-out: MMS CLint(liver)-H
Description: as §5, §6, §7, §8, §9

[10] = Microsome metabolic stability, cynomolgus monkey; type: in vitro ADME; conditions: cynomolgus monkey liver microsomes, 1 μM compound, 0.5 mg/mL; read-out: MMS CLint(liver)-C
Description: as §5, §6, §7, §8, §9

[11] = target: CYP2C19 (Homo sapiens (Human), UniProt P33261); assay: CYP inhibition in human liver microsomes, CYP2C19; type: in vitro ADME; conditions: 0.05-50 μM
Sequence of CYP2C19 (P33261 whole entry): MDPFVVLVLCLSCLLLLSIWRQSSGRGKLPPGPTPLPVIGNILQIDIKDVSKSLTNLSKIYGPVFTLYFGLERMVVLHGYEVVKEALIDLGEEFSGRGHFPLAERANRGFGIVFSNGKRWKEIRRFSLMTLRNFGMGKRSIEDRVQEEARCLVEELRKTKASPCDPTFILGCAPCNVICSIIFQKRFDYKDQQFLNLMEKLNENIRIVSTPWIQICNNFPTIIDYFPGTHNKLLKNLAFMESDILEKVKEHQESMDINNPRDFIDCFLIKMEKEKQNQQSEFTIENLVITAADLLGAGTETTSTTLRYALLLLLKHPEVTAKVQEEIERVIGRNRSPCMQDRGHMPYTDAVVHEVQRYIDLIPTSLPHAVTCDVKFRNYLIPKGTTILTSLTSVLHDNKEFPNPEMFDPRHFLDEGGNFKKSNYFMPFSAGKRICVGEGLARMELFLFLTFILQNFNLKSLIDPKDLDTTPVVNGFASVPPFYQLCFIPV
Description: as §1, §2, §3, §4

[12] = target: human V804M mutant RET kinase (Homo sapiens (Human), UniProt P07949, V804M); assay: 33P-labeled kinase activity assay, V804M mutant RET; type: biochemical; conditions: 33P-ATP at Km concentration
Sequence of human V804M mutant RET kinase (P07949 29-1114 V804M): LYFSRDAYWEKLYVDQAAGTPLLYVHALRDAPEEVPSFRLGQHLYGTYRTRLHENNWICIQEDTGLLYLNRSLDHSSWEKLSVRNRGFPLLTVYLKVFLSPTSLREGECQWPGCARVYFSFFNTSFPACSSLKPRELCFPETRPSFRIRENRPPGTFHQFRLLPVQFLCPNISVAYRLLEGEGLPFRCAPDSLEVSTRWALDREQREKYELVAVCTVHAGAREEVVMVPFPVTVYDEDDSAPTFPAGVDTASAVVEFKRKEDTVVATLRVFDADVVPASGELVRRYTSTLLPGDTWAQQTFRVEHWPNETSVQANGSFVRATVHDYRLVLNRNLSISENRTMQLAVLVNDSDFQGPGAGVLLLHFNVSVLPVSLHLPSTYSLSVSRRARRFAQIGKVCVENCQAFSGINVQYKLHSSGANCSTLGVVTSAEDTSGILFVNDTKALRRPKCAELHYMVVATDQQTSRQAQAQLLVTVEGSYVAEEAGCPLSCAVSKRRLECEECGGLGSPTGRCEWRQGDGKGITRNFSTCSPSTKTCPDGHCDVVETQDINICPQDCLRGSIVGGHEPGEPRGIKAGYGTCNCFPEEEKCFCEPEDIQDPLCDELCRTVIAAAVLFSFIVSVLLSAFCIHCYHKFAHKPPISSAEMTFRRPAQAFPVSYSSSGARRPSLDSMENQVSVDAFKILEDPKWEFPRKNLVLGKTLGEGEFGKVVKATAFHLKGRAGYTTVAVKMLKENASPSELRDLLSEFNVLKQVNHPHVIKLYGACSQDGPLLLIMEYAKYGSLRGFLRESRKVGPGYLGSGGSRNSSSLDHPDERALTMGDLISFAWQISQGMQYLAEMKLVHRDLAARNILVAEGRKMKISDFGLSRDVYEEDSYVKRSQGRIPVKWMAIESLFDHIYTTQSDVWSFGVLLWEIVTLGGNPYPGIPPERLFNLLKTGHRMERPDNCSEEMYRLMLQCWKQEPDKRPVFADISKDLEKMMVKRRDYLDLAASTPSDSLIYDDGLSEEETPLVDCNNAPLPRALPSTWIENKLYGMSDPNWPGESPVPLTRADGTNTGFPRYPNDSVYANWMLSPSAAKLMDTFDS
Description: (§10) The inhibitory activity of the test compounds against human wild-type and V804M mutant RET kinase was evaluated by measuring IC50 values in a ^33P-labeled kinase activity assay (Reaction Biology Corp).
(§11) Buffer conditions: 20 mM hydroxyethyl-piperazine-ethanesulfonic acid (Hepes) (pH 7.5), 10 mM MgCl2, 1 mM ethylene glycol-bis(aminoethyl ether)-tetraacetic acid (EGTA), 0.02% polyoxyethylene lauryl ether (Brij35), 0.02 mg/mL BSA, 0.1 mM Na3VO4, 2 mM dithiothreitol (DTT), and 1% DMSO.
(§12) Compound handling: testing compounds were dissolved in 100% DMSO to specific concentration. Serial dilution can be conducted using Integra Viaflo Assist in DMSO.
(§13) Procedures: the substrate was dissolved in freshly prepared Reaction Buffer, the test kinase was added into the substrate solution and gently mixed. Compounds in DMSO were added into the above kinase reaction mixture by Acoustic technology (Echo550) and incubate for 20 minutes at room temperature. The concentrations of the compounds in the reaction solutions were 3 μM, 1 μM, 0.333 μM, 0.111 μM, 0.0370 μM, 0.0123 μM, 4.12 nM, 1.37 nM, 0.457 nM and 0.152 nM. […] The reaction was conducted for 120 minutes at room temperature, and radioactivity was detected by filter-binding method. Kinase activity data can be expressed as the percent remaining kinase activity in test samples compared to vehicle (DMSO only) reactions. […]

[13] = target: human wild-type RET kinase (Homo sapiens (Human), UniProt P07949); assay: 33P-labeled kinase activity assay, wild-type RET; type: biochemical; conditions: 33P-ATP at Km concentration; read-out: RET(WT) IC50
Sequence of human wild-type RET kinase (P07949 29-1114): as the sequence (P07949 29-1114 V804M) above, with M776V counted along it
Description: as §10, §11, §12, §13

[14] = 0.5 mg/kg, 0.5 mpk intravenous injection
[15] = 2.5 mg/kg, 2.5 mpk oral administration

Sequence of CYP1A2 (P05177 whole entry): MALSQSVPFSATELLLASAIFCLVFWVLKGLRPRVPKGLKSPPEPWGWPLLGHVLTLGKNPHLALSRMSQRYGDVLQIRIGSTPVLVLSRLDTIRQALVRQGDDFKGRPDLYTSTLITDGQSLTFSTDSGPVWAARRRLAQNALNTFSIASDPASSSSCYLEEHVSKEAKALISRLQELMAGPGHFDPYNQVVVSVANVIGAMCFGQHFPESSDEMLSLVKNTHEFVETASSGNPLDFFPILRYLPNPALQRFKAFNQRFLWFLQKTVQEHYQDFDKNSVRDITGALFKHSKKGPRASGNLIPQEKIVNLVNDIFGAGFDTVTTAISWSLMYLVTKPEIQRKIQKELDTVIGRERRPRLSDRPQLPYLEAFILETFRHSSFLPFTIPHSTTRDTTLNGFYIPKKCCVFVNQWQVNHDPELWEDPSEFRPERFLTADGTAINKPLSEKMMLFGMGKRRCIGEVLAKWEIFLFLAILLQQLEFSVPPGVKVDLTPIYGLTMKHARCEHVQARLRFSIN

CCN1CCN(Cc2cc(F)c(NC(=O)Cc3ccc(-c4cnc5cc(OC)c(OC)cc5c4)nc3)cc2C(F)(F)F)CC1 [Compound 1]
IC50 [1]: > 50 µM | CLint scaled at 1 μM [2]: 22.5 mL/min/kg | IC50 [3]: 18.8 µM | IC50 [4]: > 50 µM | IC50 [5]: 12.5 µM | CLint scaled at 1 μM [6]: 88.5 mL/min/kg | CLint scaled at 1 μM [7]: < 17.3 mL/min/kg | AUC(0-inf) [8, 14]: 5.19 µM·h | C0 [8, 14]: 1300 nM | clearance [8, 14]: 2.68 mL/min/kg | half-life [8, 14]: 6.93 h | Vd ([8]; 0.5 mg/kg, 0.5 mpk intravenous injection, read-out: Vdss): 1.52 L/kg | AUC(0-inf) [8, 15]: 12.5 µM·h | Cmax [8, 15]: 958 nM | Tmax [8, 15]: 8 h | half-life [8, 15]: 5.16 h | CLint scaled at 1 μM [9]: 20.7 mL/min/kg | CLint scaled at 1 μM [10]: 127 mL/min/kg | IC50 [11]: 16.9 µM | IC50 [12]: 0.0009 µM | IC50 [13]: 0.0005 µM
